The results in this text go back to PubChem BioAssay (NCI).

Several values for one entry are separate records, joined by “and”; a condition that tells them apart may be missing. Equal values may be shown once.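 All cell lines were grown in 96-well plates and treated with compound for 48 hours. The concentration for 50% growth inhibition is given as GI50. At the TGI there is no net growth.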 Bounds are passed on as bounds.

Test systems include HCT-116 colon; A549 NSCLC; SK-OV-3 ovarian; SF-268 CNS; LOX IMVI melanoma; NCI-H226 lung; HT29 colon; OVCAR-5 ovarian; IGROV1 ovarian; SN12C renal.
Holding throughout (test): NCI-60 cell line screen, 48 h

`O=C(Nc1ccc(/C=C/c2ccc(NC(=O)c3cc(S(=O)(=O)O)c4cccnc4c3O)cc2S(=O)(=O)O)c(S(=O)(=O)O)c1)c1cc(S(=O)(=O)O)c2cccnc2c1O`: the GI50 is 4.54 µM in the experiment on HCT-116 colon; 9.49 µM in the experiment with A549 NSCLC; greater than 38.9 µM with SK-OV-3 ovarian; 7.99 µM with SF-268 CNS; 3.07 µM in the experiment with LOX IMVI melanoma; 6.29 µM with NCI-H226 lung. Also, the GI50 in the experiment with HT29 colon is 32.1 µM; with OVCAR-5 ovarian it was greater than 20.2 µM; in the experiment on IGROV1 ovarian it was 18.5 µM; in the experiment on SN12C renal it was 4.36 µM. Besides, the TGI in the experiment with HCT-116 colon is greater than 43.3 µM; in the experiment with A549 NSCLC, greater than 56 µM; in the experiment on SK-OV-3 ovarian it was greater than 100 µM; in the experiment on SF-268 CNS it was greater than 100 µM; in the experiment with LOX IMVI melanoma it was greater than 28 µM; in the experiment with NCI-H226 lung, 47.5 µM. Further, the TGI is greater than 100 µM in the experiment on HT29 colon, greater than 56.9 µM with OVCAR-5 ovarian, greater than 60.2 µM in the experiment with IGROV1 ovarian and greater than 59.2 µM with SN12C renal.
`O=C1c2ccccc2-c2c1c1ccccc1c(=O)n2CCCNCCCCNCCCN1C(=O)c2ccccc2C2C(=O)c3ccccc3C21` (configuration not stated): the GI50 is 0.0231 µM with HCT-116 colon; 0.0451 µM in the experiment on A549 NSCLC; 1.02 µM in the experiment with SK-OV-3 ovarian; 0.238 µM in the experiment with SF-268 CNS; 0.0278 µM in the experiment on LOX IMVI melanoma; 0.575 µM with NCI-H226 lung. Moreover, the GI50 in the experiment with HT29 colon is 0.0766 µM; in the experiment with OVCAR-5 ovarian, 0.57 µM; with IGROV1 ovarian, 0.988 µM; in the experiment with SN12C renal, less than 0.005 µM. Moreover, the TGI with HCT-116 colon came to 0.421 µM; with A549 NSCLC it was 0.881 µM; with SK-OV-3 ovarian, 2.81 µM; in the experiment on SF-268 CNS, 1.42 µM; in the experiment on LOX IMVI melanoma, 0.253 µM; with NCI-H226 lung, 2.19 µM. Moreover, the TGI in the experiment with HT29 colon is 8.75 µM; with OVCAR-5 ovarian it was 1.19 µM; in the experiment on IGROV1 ovarian, 10.7 µM; in the experiment with SN12C renal, 0.818 µM.
As for `COc1ccc(/C=C/C(=O)c2ccc(OC)c(OC)c2)cc1O`, the GI50 in the experiment on HCT-116 colon was 3.35 µM; with A549 NSCLC, 2.99 µM; with SK-OV-3 ovarian, 6.51 µM; in the experiment with SF-268 CNS, 8.74 µM; in the experiment on LOX IMVI melanoma it was 5.69 µM; with NCI-H226 lung it was 11.1 µM. For the same molecule, the GI50 with HT29 colon was 5.91 µM; in the experiment on OVCAR-5 ovarian it was 4.94 µM; in the experiment on IGROV1 ovarian, 7.03 µM; in the experiment with SN12C renal it was 3.74 µM. The TGI amounted to 12.8 µM with HCT-116 colon; 15.1 µM in the experiment with A549 NSCLC; 45 µM in the experiment with SK-OV-3 ovarian; 29.1 µM with SF-268 CNS; 18.6 µM in the experiment with LOX IMVI melanoma; 25.4 µM with NCI-H226 lung. The TGI came out at 20.5 µM in the experiment with HT29 colon, 28.9 µM in the experiment with OVCAR-5 ovarian, 39.9 µM in the experiment with IGROV1 ovarian and 15.6 µM with SN12C renal.
In the case of `COc1cc([C@@H]2C[C@H]2c2cc(SC)n[nH]2)cc(OC)c1OC`, the GI50 is 23.6 µM in the experiment with HCT-116 colon; 25.9 µM in the experiment with A549 NSCLC; 17.4 µM with SK-OV-3 ovarian; 15.1 µM in the experiment with SF-268 CNS; 93.9 µM with LOX IMVI melanoma; 16.9 µM in the experiment on NCI-H226 lung. Further, the GI50 with HT29 colon was 26.9 µM; in the experiment with OVCAR-5 ovarian it was 37.9 µM; with IGROV1 ovarian, 18.3 µM; in the experiment with SN12C renal, 8.98 µM. In addition, the TGI in the experiment on HCT-116 colon is 85.7 µM; with A549 NSCLC it was greater than 100 µM; in the experiment with SK-OV-3 ovarian, 65.2 µM; in the experiment on SF-268 CNS, 50 µM; in the experiment on LOX IMVI melanoma, greater than 100 µM; with NCI-H226 lung, 70.4 µM. Besides, the TGI in the experiment on HT29 colon is greater than 100 µM; with OVCAR-5 ovarian, 90.1 µM; in the experiment on IGROV1 ovarian, greater than 100 µM; in the experiment with SN12C renal, 31.8 µM.
With `CCCCCCCCC(=O)OCC(CS[As](C)C)OC(=O)CCCCCCCC` (configuration not stated), the GI50 in the experiment on HCT-116 colon was 0.373 µM; in the experiment with A549 NSCLC, 8.36 µM; with SK-OV-3 ovarian, 16.5 µM; in the experiment with SF-268 CNS, 3.53 µM; with LOX IMVI melanoma, 1.09 µM; in the experiment with NCI-H226 lung it was 5.81 µM. The GI50 was 1.51 µM with HT29 colon, 3.22 µM in the experiment with OVCAR-5 ovarian, 5.1 µM in the experiment with IGROV1 ovarian and 2.08 µM in the experiment on SN12C renal. Further, the TGI with HCT-116 colon was 11.3 µM; with A549 NSCLC it was 41.7 µM; in the experiment on SK-OV-3 ovarian, greater than 67.6 µM; with SF-268 CNS, 25.9 µM; with LOX IMVI melanoma, 5.7 µM; in the experiment on NCI-H226 lung, 25.5 µM. Besides, the TGI in the experiment on HT29 colon was 17.3 µM; in the experiment on OVCAR-5 ovarian, 10 µM; in the experiment on IGROV1 ovarian it was greater than 48.4 µM; with SN12C renal, 12.6 µM.
Consider `OCc1ccc(N2CCc3ccccc3C2)cc1Cl`, for which the GI50 in the experiment with HCT-116 colon is less than 0.01 µM; with A549 NSCLC it was 0.0604 µM; with SK-OV-3 ovarian, 0.754 µM; in the experiment with SF-268 CNS, 32.5 µM; in the experiment with LOX IMVI melanoma, 31.6 µM; in the experiment on NCI-H226 lung, 0.0134 µM. Besides, the GI50 was less than 0.02 µM with HT29 colon, less than 0.0123 µM in the experiment on OVCAR-5 ovarian, less than 0.0155 µM in the experiment on IGROV1 ovarian and 11.4 µM in the experiment on SN12C renal. The TGI with HCT-116 colon was 14.1 µM; with A549 NSCLC, 7.59 µM; in the experiment with SK-OV-3 ovarian, 8.95 µM; in the experiment on SF-268 CNS it was greater than 100 µM; in the experiment on LOX IMVI melanoma, greater than 100 µM; in the experiment with NCI-H226 lung, 0.0768 µM. Moreover, the TGI in the experiment with HT29 colon was greater than 55.4 µM; with OVCAR-5 ovarian it was 0.069 µM; with IGROV1 ovarian it was less than 0.0281 µM; with SN12C renal, greater than 100 µM.
In the case of `Cc1c(O)c2c(c(O)c1Br)C(=O)C=CC2=O`, the GI50 was 1.01 µM in the experiment with HCT-116 colon; 4.14 µM in the experiment with A549 NSCLC; 14.1 µM in the experiment on SK-OV-3 ovarian; 0.215 µM in the experiment on LOX IMVI melanoma; 5.44 µM with NCI-H226 lung; 0.602 µM in the experiment with HT29 colon. In the experiment on OVCAR-5 ovarian, the GI50 is 1.95 µM. For the same molecule, the TGI with HCT-116 colon is 0.817 µM and 2.16 µM; in the experiment on A549 NSCLC, 4.47 µM and 29.4 µM; in the experiment with SK-OV-3 ovarian, 3.93 µM and 27.1 µM; in the experiment on SF-268 CNS, 4.63 µM and 6.51 µM; in the experiment on LOX IMVI melanoma it was 1.54 µM and 0.703 µM; in the experiment with NCI-H226 lung, 5.77 µM and 18.7 µM. The TGI is 1.1 µM and 2.8 µM in the experiment on HT29 colon; 3.19 µM and 3.92 µM in the experiment on OVCAR-5 ovarian; 3.05 µM and 3.56 µM with IGROV1 ovarian; 2.73 µM in the experiment with SN12C renal.
